Assay results: patent US7666390B2, “DTPA derivatives and metal complexes thereof, and radiation source and contrast agent including the metal complexes” (Korea Atomic Energy Research Institute, priority 2005, dated 2010)

Key:
[1] = Urinary excretion of the radioactive metal (^99mTc) complex in animals, gamma camera imaging and renal time activity curves; format: in vivo, rabbits (New Zealand White); details: male rabbits; for time to achieve maximum activity (Tmax) / time to eliminate half of the maximum activity (T1/2): ear vein injection 1.0±0.1 mCi, from ROI time activity curve
Protocol: (§1) Male rabbits (New Zealand White) were anesthetized by the intramuscular injection of 25 mg/kg of Ketamine (Yuhan Corporation, Korea) and 6 mg/kg of Rompun (Bayer Korea), and then received through the ear vein 1.0±0.1 mCi of the ^99mTc-DTPA derivative complex, ^99mTc-DTPA-mono(3-amido-2,4,6-triiodobenzoic acid). The behavior of the drug was monitored for 30 min by scanning the whole body of rabbits using a gamma camera (SIMENSE, Germany). The gamma camera was equipped with a parallel hole collimator, and was set at an energy level of 140 keV to obtain images.
In addition, regions of interest (ROIs) were created around the right and left kidneys to produce time activity curves. From the time activity curves, time to achieve maximum activity (Tmax) and time to eliminate half of the maximum activity (T1/2) for each kidney were calculated using a computer system (SINCTRON IV, Germany), and the results are given in FIG. 4.

[2] = Urinary excretion of the radioactive metal (^166Ho) complex in animals, gamma camera imaging and renal time activity curves; format: in vivo, rabbits (New Zealand White); details: male rabbits; for half time of the maximum activity (T1/2) / time to maximum activity (Tmax): ear vein injection 3.0±0.2 mCi, from ROI time activity curve
Protocol: as §1, with “by” for “by the”, “3.0±0.2” for “1.0±0.1”, “^166Ho-DTPA-bis(5-amido-2,4,6-triiodoisophthalic” for “the ^99mTc-DTPA derivative complex, ^99mTc-DTPA-mono(3-amido-2,4,6-triiodobenzoic”, “81 keV. At this energy level, images were obtained using a medium-energy collimator with a window width of 20%.” for “140 keV to obtain images.”
In addition, regions of interest (ROIs) were created around the right and left kidneys to produce time activity curves. From the time activity curves, time to maximum activity (Tmax) and half time of the maximum activity (T1/2) for each kidney were calculated using a computer system (SINCTRON IV, Germany), and the results are given in FIG. 6.

time to achieve maximum activity (Tmax) ([1]; left kidney) [min] | time to eliminate half of the maximum activity (T1/2) ([1]; left kidney) [min] | time from injection by which mostly excreted via the kidneys and bladder ([1]; ear vein injection, whole body gamma camera scan for 30 min, 140 keV) [min] | time to achieve maximum activity (Tmax) ([1]; right kidney) [min] | time to eliminate half of the maximum activity (T1/2) ([1]; right kidney) [min] | half time of the maximum activity (T1/2) ([2]; left kidney) [min] | time to maximum activity (Tmax) ([2]; left kidney) [min] | time from injection by which mostly excreted via the kidneys and bladder ([2]; ear vein injection, whole body gamma camera scan for 30 min, 81 keV) [min] | half time of the maximum activity (T1/2) ([2]; right kidney) [min] | time to maximum activity (Tmax) ([2]; right kidney) [min] | Substance | radioactivity in the kidneys ([1]; 30 min after injection) | radioactivity in the kidneys ([2]; 30 min after injection)
1 | 5 | ≤ 30 | 1 | 5.5 |  |  |  |  |  | ^99mTc-DTPA-mono(3-amido-2,4,6-triiodobenzoic acid) | decrease to a level near the non-specific background signal | 
 |  |  |  |  | 6.5 | 1.5 | ≤ 30 | 7.5 | 1.75 | ^166Ho-DTPA-bis(5-amido-2,4,6-triiodoisophthalic acid) |  | decrease to a level near the non-specific background signal
